Reference: patent US12162840B2, “Herbicidal compositions” (SYNGENTA PARTICIPATIONS AG, priority 2018, dated 2024)

Legend:
Assay type in all cases: in vivo
[1] = system: Amaranthus retoflexus (AMARE); test: B1 Post-emergence efficacy Test 1; settings: post-emergence application, 1000 g/ha, evaluated after 13 days
In short: (§1)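 Seedlings grown 8 days in soil pots in a glasshouse (24/16 °C day/night, 14 h light, 65% humidity) were sprayed post-emergence at 1000 g/ha from acetone/water (50:50) with 0.5% Tween 20. Percent damage was scored 13 days later on a five-point scale (5=80-100% to 1=0-19%).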

Lolium perenne (LOLPE) = test: B1 Post-emergence efficacy Test 1; settings: post-emergence application, 1000 g/ha, evaluated after 13 days
In short: as §1

Solanum nigrum (SOLNI) = test: B1 Post-emergence efficacy Test 1; settings: post-emergence application, 1000 g/ha, evaluated after 13 days
In short: as §1

[2] = system: Ipomoea hederacea (IPOHE); test: B1 Post-emergence efficacy Test 1; settings: post-emergence application, 1000 g/ha, evaluated after 13 days
In short: as §1

Setaria faberi (SETFA) = test: B1 Post-emergence efficacy Test 1; settings: post-emergence application, 1000 g/ha, evaluated after 13 days
In short: as §1

[3] = system: Echinochloa crus-galli (ECHCG); test: B1 Post-emergence efficacy Test 1; settings: post-emergence application, 1000 g/ha, evaluated after 13 days
In short: as §1

[4] = system: cool season plant species; test: B2 Post-emergence efficacy Test 2, cool season plant species; settings: 15 days after application, 0=no damage, 100=total kill
Procedure: Seeds of a variety of test species (see Table B1) were sown in standard soil in pots. After cultivation for 12 days (post-emergence) under controlled conditions in a glasshouse (at 24/18° C. or 20/16° C., at day/night; 16 hours light; 65% humidity), the plants were sprayed with an aqueous spray solution derived from the formulation of the technical active ingredient dissolved in IF50 (see Table B2 for composition) and adjuvant (Genapol XO80) was added to the spray solution at a rate of 0.2% v/v. [table] [table] After application, the test plants were grown in a glasshouse under controlled conditions (as above) and watered twice daily. Herbicidal activity was evaluated 15 days after application on a 0-100 scale. The results, where 0=no damage to test plant and 100=total kill of test plant are shown below in Tables 6 to 9.

Cc1nn(C)c(=O)c(-c2c(F)ccc(Cl)c2CCc2ccccc2C(F)(F)F)c1O [Compound 1.066]
percentage damage caused to the plant, five point scale, AMARE [1]: 5 (5=80-100%)
percentage damage caused to the plant, five point scale, LOLPE (Lolium perenne (LOLPE)): 4 (4=60-79%)
percentage damage caused to the plant, five point scale, SOLNI (Solanum nigrum (SOLNI)): 5 (5=80-100%)
percentage damage caused to the plant, five point scale, IPOHE [2]: 5 (5=80-100%)
percentage damage caused to the plant, five point scale, SETFA (Setaria faberi (SETFA)): 5 (5=80-100%)
percentage damage caused to the plant, five point scale, ECHCG [3]: 5 (5=80-100%)
Herbicidal activity (0-100 scale) ALOMY ([4]; 15 g/Ha): 20
Herbicidal activity (0-100 scale) ALOMY ([4]; 30 g/Ha): 50
Herbicidal activity (0-100 scale) ALOMY ([4]; 60 g/Ha): 70
Herbicidal activity (0-100 scale) ALOMY ([4]; 125 g/Ha): 80
Herbicidal activity (0-100 scale) ALOMY ([4]; 250 g/Ha): 90
Herbicidal activity (0-100 scale) ALOMY ([4]; 500 g/Ha): 90
Herbicidal activity (0-100 scale) AVEFA ([4]; 15 g/Ha): 0
Herbicidal activity (0-100 scale) AVEFA ([4]; 30 g/Ha): 20
Herbicidal activity (0-100 scale) AVEFA ([4]; 60 g/Ha): 40
Herbicidal activity (0-100 scale) AVEFA ([4]; 125 g/Ha): 90
Herbicidal activity (0-100 scale) AVEFA ([4]; 250 g/Ha): 90
Herbicidal activity (0-100 scale) AVEFA ([4]; 500 g/Ha): 90
Herbicidal activity (0-100 scale) BEAVA ([4]; 15 g/Ha): 80
Herbicidal activity (0-100 scale) BEAVA ([4]; 30 g/Ha): 80
Herbicidal activity (0-100 scale) BEAVA ([4]; 60 g/Ha): 80
Herbicidal activity (0-100 scale) BEAVA ([4]; 125 g/Ha): 80
Herbicidal activity (0-100 scale) BEAVA ([4]; 250 g/Ha): 80
Herbicidal activity (0-100 scale) BEAVA ([4]; 500 g/Ha): 90
Herbicidal activity (0-100 scale) BROTE ([4]; 15 g/Ha): 0
Herbicidal activity (0-100 scale) BROTE ([4]; 30 g/Ha): 20
Herbicidal activity (0-100 scale) BROTE ([4]; 60 g/Ha): 60
Herbicidal activity (0-100 scale) BROTE ([4]; 125 g/Ha): 70
Herbicidal activity (0-100 scale) BROTE ([4]; 250 g/Ha): 80
Herbicidal activity (0-100 scale) BROTE ([4]; 500 g/Ha): 90
Herbicidal activity (0-100 scale) BRSNN ([4]; 15 g/Ha): 90
Herbicidal activity (0-100 scale) BRSNN ([4]; 30 g/Ha): 90
Herbicidal activity (0-100 scale) BRSNN ([4]; 60 g/Ha): 90
Herbicidal activity (0-100 scale) BRSNN ([4]; 125 g/Ha): 90
Herbicidal activity (0-100 scale) BRSNN ([4]; 250 g/Ha): 90
Herbicidal activity (0-100 scale) BRSNN ([4]; 500 g/Ha): 90
Herbicidal activity (0-100 scale) CHEAL ([4]; 30 g/Ha): 90
Herbicidal activity (0-100 scale) CHEAL ([4]; 60 g/Ha): 90
Herbicidal activity (0-100 scale) CHEAL ([4]; 125 g/Ha): 90
Herbicidal activity (0-100 scale) CHEAL ([4]; 250 g/Ha): 100
Herbicidal activity (0-100 scale) CHEAL ([4]; 500 g/Ha): 100
Herbicidal activity (0-100 scale) GALAP ([4]; 15 g/Ha): 20
Herbicidal activity (0-100 scale) GALAP ([4]; 30 g/Ha): 20
Herbicidal activity (0-100 scale) GALAP ([4]; 60 g/Ha): 20
Herbicidal activity (0-100 scale) GALAP ([4]; 125 g/Ha): 20
Herbicidal activity (0-100 scale) GALAP ([4]; 250 g/Ha): 30
Herbicidal activity (0-100 scale) GALAP ([4]; 500 g/Ha): 90
Herbicidal activity (0-100 scale) HORVW ([4]; 15 g/Ha): 0
Herbicidal activity (0-100 scale) HORVW ([4]; 30 g/Ha): 10
Herbicidal activity (0-100 scale) HORVW ([4]; 60 g/Ha): 20
Herbicidal activity (0-100 scale) HORVW ([4]; 125 g/Ha): 70
Herbicidal activity (0-100 scale) HORVW ([4]; 250 g/Ha): 80
Herbicidal activity (0-100 scale) HORVW ([4]; 500 g/Ha): 90
Herbicidal activity (0-100 scale) KCHSC ([4]; 15 g/Ha): 0
Herbicidal activity (0-100 scale) KCHSC ([4]; 30 g/Ha): 0
Herbicidal activity (0-100 scale) KCHSC ([4]; 60 g/Ha): 0
Herbicidal activity (0-100 scale) KCHSC ([4]; 125 g/Ha): 10
Herbicidal activity (0-100 scale) KCHSC ([4]; 250 g/Ha): 20
Herbicidal activity (0-100 scale) KCHSC ([4]; 500 g/Ha): 20
Herbicidal activity (0-100 scale) LOLPE ([4]; 15 g/Ha): 10
Herbicidal activity (0-100 scale) LOLPE ([4]; 30 g/Ha): 20
Herbicidal activity (0-100 scale) LOLPE ([4]; 60 g/Ha): 80
Herbicidal activity (0-100 scale) LOLPE ([4]; 125 g/Ha): 90
Herbicidal activity (0-100 scale) LOLPE ([4]; 250 g/Ha): 90
Herbicidal activity (0-100 scale) LOLPE ([4]; 500 g/Ha): 100
Herbicidal activity (0-100 scale) POAAN ([4]; 15 g/Ha): 20
Herbicidal activity (0-100 scale) POAAN ([4]; 30 g/Ha): 70
Herbicidal activity (0-100 scale) POAAN ([4]; 60 g/Ha): 80
Herbicidal activity (0-100 scale) POAAN ([4]; 125 g/Ha): 90
Herbicidal activity (0-100 scale) POAAN ([4]; 250 g/Ha): 90
Herbicidal activity (0-100 scale) POAAN ([4]; 500 g/Ha): 90
Herbicidal activity (0-100 scale) POLCO ([4]; 15 g/Ha): 70
Herbicidal activity (0-100 scale) POLCO ([4]; 30 g/Ha): 80
Herbicidal activity (0-100 scale) POLCO ([4]; 60 g/Ha): 90
Herbicidal activity (0-100 scale) POLCO ([4]; 125 g/Ha): 90
Herbicidal activity (0-100 scale) POLCO ([4]; 250 g/Ha): 100
Herbicidal activity (0-100 scale) POLCO ([4]; 500 g/Ha): 100
Herbicidal activity (0-100 scale) SINAR ([4]; 15 g/Ha): 60
Herbicidal activity (0-100 scale) SINAR ([4]; 30 g/Ha): 60
Herbicidal activity (0-100 scale) SINAR ([4]; 60 g/Ha): 80
Herbicidal activity (0-100 scale) SINAR ([4]; 125 g/Ha): 90
Herbicidal activity (0-100 scale) SINAR ([4]; 250 g/Ha): 90
Herbicidal activity (0-100 scale) SINAR ([4]; 500 g/Ha): 90
Herbicidal activity (0-100 scale) STEME ([4]; 15 g/Ha): 80
Herbicidal activity (0-100 scale) STEME ([4]; 30 g/Ha): 60
Herbicidal activity (0-100 scale) STEME ([4]; 60 g/Ha): 90
Herbicidal activity (0-100 scale) STEME ([4]; 125 g/Ha): 90
Herbicidal activity (0-100 scale) STEME ([4]; 250 g/Ha): 90
Herbicidal activity (0-100 scale) STEME ([4]; 500 g/Ha): 100
Herbicidal activity (0-100 scale) TRZAW ([4]; 15 g/Ha): 0
Herbicidal activity (0-100 scale) TRZAW ([4]; 30 g/Ha): 10
Herbicidal activity (0-100 scale) TRZAW ([4]; 60 g/Ha): 40
Herbicidal activity (0-100 scale) TRZAW ([4]; 125 g/Ha): 60
Herbicidal activity (0-100 scale) TRZAW ([4]; 250 g/Ha): 70
Herbicidal activity (0-100 scale) TRZAW ([4]; 500 g/Ha): 80
Herbicidal activity (0-100 scale) VERPE ([4]; 15 g/Ha): 80
Herbicidal activity (0-100 scale) VERPE ([4]; 30 g/Ha): 90
Herbicidal activity (0-100 scale) VERPE ([4]; 60 g/Ha): 100
Herbicidal activity (0-100 scale) VERPE ([4]; 125 g/Ha): 100
Herbicidal activity (0-100 scale) VERPE ([4]; 250 g/Ha): 100
Herbicidal activity (0-100 scale) VERPE ([4]; 500 g/Ha): 100
